Results published in patent US7119082B2, “11β-long-chain-substituted 19-nor-17α-pregna-1,3,5(10)-trien-17β-ols with a 21,16α-lactone ring” (priority 2002, dated 2006).
Where two headings read alike, the source gives them in different places.

Experiments:
[1] = tested on: estrogen receptor from the rat prostate; experiment: Estrogen receptor binding, rat prostate cytosol, competition with 3H-estradiol; settings: for Rat Prostate ER (RBA): Table 1, 3H-estradiol as ligand
[2] = tested on: estrogen receptor from the rat uterus; experiment: Estrogen receptor binding, rat uterus cytosol, competition with 3H-estradiol
[3] = biological target: T1, estrogen receptor from the rat uterus (Rattus norvegicus, UniProt P06211); experiment: as above
T1 construct: The preparation of rat uterus cytosol as well as the receptor test with the estrogen-receptor-containing cytosol; from tissue; host or cells: rat uterus cytosol
T1 sequence (P06211 1-600): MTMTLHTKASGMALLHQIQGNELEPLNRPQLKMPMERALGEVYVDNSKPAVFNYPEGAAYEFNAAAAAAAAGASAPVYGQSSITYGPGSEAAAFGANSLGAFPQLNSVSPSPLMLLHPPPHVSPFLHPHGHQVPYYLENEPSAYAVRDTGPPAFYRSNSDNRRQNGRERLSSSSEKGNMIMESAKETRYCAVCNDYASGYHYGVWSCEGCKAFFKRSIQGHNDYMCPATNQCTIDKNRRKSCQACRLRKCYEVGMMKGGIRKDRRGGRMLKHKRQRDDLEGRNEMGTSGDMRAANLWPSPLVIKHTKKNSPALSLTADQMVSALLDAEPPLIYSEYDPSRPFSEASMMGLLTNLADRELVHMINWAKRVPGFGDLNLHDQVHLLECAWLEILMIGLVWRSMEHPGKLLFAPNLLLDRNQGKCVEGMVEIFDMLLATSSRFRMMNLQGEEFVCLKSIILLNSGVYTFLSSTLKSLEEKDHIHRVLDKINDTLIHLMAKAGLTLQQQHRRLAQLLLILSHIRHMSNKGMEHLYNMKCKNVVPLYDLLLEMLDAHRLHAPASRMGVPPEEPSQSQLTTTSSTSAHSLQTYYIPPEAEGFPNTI

[4] = tested on: hER β; experiment: Relative binding affinity to hER β (cited from Kuiper et al.); set-up: species or system human; settings: Table 2; quotient of the cited RBA values
Excerpt: In this case, it is assumed that ERβ predominates in the rat prostate over ERα, and ERα predominates in the rat uterus over ERβ.

[5] = tested on: hER β; settings: Table 2; cited from Kuiper et al. (1996), Endocrinology 138: 863-870; cited from earlier work
[6] = tested on: MCF-7 breast cancer cells; experiment: Cell proliferation assay, estradiol-stimulated MCF-7, crystal violet; assay type: cell-based; settings: Homo sapiens, MCF7, 168 h; concentration 10^-5 M; 7 days; FIG. 1
[7] = relative binding affinity, estradiol = 100

Compound: C[C@]12CC[C@H](O)CC1=CCC1C2CC[C@@]2(C)C1CC[C@@H]2O (stereo partly shown) [5-Andros-ten-diol]
- Rat prost. ER(RBA) [1]: 5
- Uterus-ER/Prostata-ER ([2]; Table 2, ratio of rat ER RBA values as headed): 50
- Rat uterus ER(RBA) [3]: 0.1
- ERβ/ERα [4]: 3
- hER β RBA [5]: 17

Compound: CCCCCC[C@H]1C[C@@]2(C)C(C[C@H]3OC(=O)C[C@]32O)C2CCc3cc(O)ccc3C21 (stereo partly drawn) [Compound 1, 3,17β-Dihydroxy-11β-hexyl-19-nor-17α-pregna-1,3,5(10)-triene-21,16α-lactone]
- Rat Prostate ER (RBA) [1, 7]: 1.2
- Uterus-ER/Prostate-ER ([2]; Table 1, ratio of RBA rat uterus ER to rat prostate ER): 22
- Binding affinity, rat uterus ER compared with rat prostate ER (in words) ([2]; see Table 1): higher binding affinity to the estrogen receptor from the rat uterus than to the estrogen receptor from the rat prostate
- Rat uterus ER(RBA) ([3]; Table 1, relative binding affinity, estradiol = 100, 3H-estradiol as ligand): 26.2
- inhibition at 10 µM [6]: 100%

Compound: C[C@]12CCC3c4ccc(O)cc4CCC3C1CC[C@@H]2O (stereo partly shown) [Estradiol]
- Rat Prostate ER (RBA) [1, 7]: 100
- Rat prost. ER(RBA) ([1]; Table 2, relative binding affinity, estradiol = 100): 100

Compound: C[C@]12CC[C@@H]3c4ccc(O)cc4CC[C@H]3[C@@H]1C[C@@H](O)[C@@H]2O [Estriol]
- hER β RBA [5]: 21
